Reference: patent publication US10968178B2, “IP6K inhibitors” (TAKEDA PHARMACEUTICAL COMPANY LIMITED, priority 2017, dated 2021)

Legend:
Assay type in all cases: biochemical
human IP6K3 = target: T1, human IP6K3 (Homo sapiens, UniProt Q96PC2); assay: IP6K enzyme inhibitory assay (ADP-Glo Kinase Assay), human IP6K3; details: compound concentration 0.1 μM; read-out: ADP-Glo method inhibitory rate (%) human IP6K3
T1 construct: human IP6K3 (1-410) gene; made in house; host or cells: BL21 (DE3) Escherichia coli
T1 sequence (Q96PC2 1-410): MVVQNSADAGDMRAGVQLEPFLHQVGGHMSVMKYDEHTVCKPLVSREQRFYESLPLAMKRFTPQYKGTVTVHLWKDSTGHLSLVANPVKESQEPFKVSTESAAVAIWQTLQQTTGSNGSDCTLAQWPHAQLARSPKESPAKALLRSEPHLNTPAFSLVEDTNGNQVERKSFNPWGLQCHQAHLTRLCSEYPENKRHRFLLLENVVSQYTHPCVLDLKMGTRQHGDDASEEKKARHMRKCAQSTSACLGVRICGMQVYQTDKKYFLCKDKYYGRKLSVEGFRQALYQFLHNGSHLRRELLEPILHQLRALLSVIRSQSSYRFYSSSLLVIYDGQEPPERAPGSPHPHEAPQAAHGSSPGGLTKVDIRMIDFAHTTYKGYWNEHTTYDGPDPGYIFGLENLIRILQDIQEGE
Method in brief: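 Recombinant human IP6K (IP6K3 residues 1-410, E. coli, Ni-NTA purified) incubated with compound in 20 mM HEPES pH 7.5, 6 mM MgCl2, 0.01% Tween-20, 1 mM DTT for 60 min at room temperature. ADP formed read as luminescence by ADP-Glo.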

human IP6K2 = target: T2, human IP6K2 (Homo sapiens, UniProt Q9UHH9); assay: IP6K enzyme inhibitory assay (ADP-Glo Kinase Assay), human IP6K2; details: compound concentration 0.1 μM; read-out: ADP-Glo method inhibitory rate (%) human IP6K2
T2 construct: human IP6K2 (1-426) gene; GST; made in house; host or cells: Sf-9 insect cells
T2 sequence (Q9UHH9 1-426): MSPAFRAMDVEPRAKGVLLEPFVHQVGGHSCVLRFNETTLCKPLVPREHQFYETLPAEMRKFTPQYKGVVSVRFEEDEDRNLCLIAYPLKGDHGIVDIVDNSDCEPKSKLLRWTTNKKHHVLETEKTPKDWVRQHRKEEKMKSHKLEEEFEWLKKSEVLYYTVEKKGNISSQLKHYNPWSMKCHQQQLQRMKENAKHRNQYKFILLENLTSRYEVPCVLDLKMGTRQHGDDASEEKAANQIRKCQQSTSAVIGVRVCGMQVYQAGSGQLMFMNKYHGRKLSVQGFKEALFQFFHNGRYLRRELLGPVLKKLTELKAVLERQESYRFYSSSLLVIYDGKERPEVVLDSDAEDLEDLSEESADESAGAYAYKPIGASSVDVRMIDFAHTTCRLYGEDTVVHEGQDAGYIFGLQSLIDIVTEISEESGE
Method in brief: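 The inhibitory activity against human IP6K2 was measured with Promega's ADP-Glo Kinase Assay in 384 well plates. Test compound, diluted in assay buffer (20 mM HEPES (pH 7.5), 6 mM MgCl2, 0.01% Tween-20, 1 mM DTT), was added at 2 μL. Adding 2 μL of diluted enzyme started the reaction, which ran for 60 min at room temperature. Next, 3 μL ADP-Glo solution (30 min) and 6 μL Kinase-Detection solution (60 min) were added, and luminescence was read on an Envision plate reader.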

human IP6K1 = target: T3, human IP6K1 (Homo sapiens, UniProt Q92551); assay: IP6K enzyme inhibitory assay (ADP-Glo Kinase Assay), human IP6K1; details: compound concentration 0.1 μM; read-out: ADP-Glo method inhibitory rate (%) human IP6K1
T3 construct: human IP6K1 (1-441) gene; GST; made in house; host or cells: Sf-9 insect cells
T3 sequence (Q92551 whole entry): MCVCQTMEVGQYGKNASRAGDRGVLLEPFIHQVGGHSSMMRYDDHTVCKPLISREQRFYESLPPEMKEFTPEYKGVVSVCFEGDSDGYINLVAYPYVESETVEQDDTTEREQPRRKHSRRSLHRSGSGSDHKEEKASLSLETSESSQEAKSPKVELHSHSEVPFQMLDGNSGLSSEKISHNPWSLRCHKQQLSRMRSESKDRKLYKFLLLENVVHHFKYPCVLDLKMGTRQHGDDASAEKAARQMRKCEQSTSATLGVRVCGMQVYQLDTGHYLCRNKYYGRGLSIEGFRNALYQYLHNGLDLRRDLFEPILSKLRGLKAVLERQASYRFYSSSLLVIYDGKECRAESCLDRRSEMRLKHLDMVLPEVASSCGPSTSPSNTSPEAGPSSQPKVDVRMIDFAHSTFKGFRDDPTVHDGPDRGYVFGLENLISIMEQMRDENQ
Method in brief: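 Inhibition of human IP6K1 was determined with Promega's ADP-Glo Kinase Assay in 384 well plates. Test compound diluted in assay buffer (20 mM HEPES (pH 7.5), 6 mM MgCl2, 0.01% Tween-20, 1 mM DTT) was added at 2 μL, then 2 μL of enzyme started the reaction for 60 min at room temperature. Next came 3 μL ADP-Glo solution for 30 min and 6 μL Kinase-Detection solution for 60 min. Luminescence was read on an Envision plate reader.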

inhibition at 0.1 µM (human IP6K3)	inhibition at 0.1 µM (human IP6K2)	inhibition at 0.1 µM (human IP6K1)	Structure (SMILES)
96%	101%	99%	O=C(O)c1ccc2c(c1)[C@]1(CC[C@@H](Oc3ccc(Cl)cc3)CC1)C(=O)N2 [Example 114, (1r,4r)-4-(4-chlorophenoxy)-2′-oxo-1′,2′-dihydrospiro[cyclohexane-1,3′-indole]-5′-carboxylic acid]
99%	99%	97%	O=C(O)c1ccc2c(n1)[C@]1(CC[C@H](Oc3ncc(C(F)(F)F)cc3Cl)CC1)C(=O)N2 [Example 115, (1s,4s)-4-((3-chloro-5-(trifluoromethyl)pyridin-2-yl)oxy)-2′-oxo-1′,2′-dihydrospiro[cyclohexane-1,3′-pyrrolo[3,2-b]pyridine]-5′-carboxylic acid]
